Experimental findings from patent US5242826A, “Polypeptides for adhering cells to a substrate” (Regents of the University of Minnesota, priority 1991, dated 1993) are described below.

This assay can be described thus: 3H-heparin binding to type IV collagen and to NCl domain. The method, then:
It was then established that ^3 H-heparin binds both to intact, native type IV collagen and to the isolated NCl domain. FIGS. 10 and 11 show the binding of a constant amount of ^3 H-heparin (85,000 dpm) to increasing concentrations of type IV collagen and the NCl domain, respectively. […] Type IV collagen binds 5-6 times more ^3 H-heparin than does the NCl domain.
Next, the binding of increasing concentrations of ^3 H-heparin to a constant amount of type IV collagen (3 μg) and an equimolar amount of the NCl domain (1 μg) was tested. […] In this type of experiment, approximately 4 times more ^3 H-heparin bound to type IV collagen than to the NCl domain.

As to “type IV collagen: basement membrane glycoprotein, MW about 500,000, two α1 chains and one α2 chain”, the “binding of a constant amount of 3H-heparin to increasing concentrations of protein” value (3H-heparin 85,000 dpm, FIG. 10-11) is reported as “saturable binding”. The “3H-heparin bound by type IV collagen relative to NCl domain” value (constant 3H-heparin (85,000 dpm), increasing protein) is reported as 5-6 times. Also, the “3H-heparin bound to type IV collagen relative to NCl domain” value (increasing 3H-heparin, constant protein (3 μg vs 1 μg)) is reported as “approximately 4 times”. Also, the “binding of increasing concentrations of 3H-heparin to a constant amount of protein” value (type IV collagen 3 μg, NCl domain 1 μg (equimolar), FIG. 12-13) is “saturable binding”.
